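96-well plates; 48 h exposure; 5 concentrations. Endpoints by linear interpolation between flanking doses. Not reached: highest tested concentration assigned. GI50 = concentration required for 50% inhibition of growth.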 The source made the active and inactive calls. No stated cut-off is given here; in the data, active = GI50 up to about 1.1 µM and inactive = higher.
Assays:
Assay in all cases: DTP human tumour cell line panel, 48 h
SNB-75 = system: SNB-75
A498 = system: A498
OVCAR-3 = system: OVCAR-3
786-0 = system: 786-0
SK-MEL-28 = system: SK-MEL-28
DMS-114 = system: DMS-114
OVCAR-4 = system: OVCAR-4
OVCAR-5 = system: OVCAR-5
SK-OV-3 = system: SK-OV-3
HCT-15 = system: HCT-15
TK-10 = system: TK-10
DMS-273 = system: DMS-273
SF-539 = system: SF-539
EKVX = system: EKVX
A549 = system: A549
U-251 = system: U-251
KM12 = system: KM12
SK-MEL-5 = system: SK-MEL-5
SN12C = system: SN12C
RPMI-8226 = system: RPMI-8226
K562 = system: K562
LXFL 529 = system: LXFL 529
UO-31 = system: UO-31
SK-MEL-2 = system: SK-MEL-2
HOP-18 = system: HOP-18
NCI-H460 = system: NCI-H460
UACC-257 = system: UACC-257
UACC-62 = system: UACC-62
SNB-78 = system: SNB-78
HOP-62 = system: HOP-62
XF498 = system: XF498
HCT-116 = system: HCT-116
MOLT-4 = system: MOLT-4
IGROV-1 = system: IGROV-1
NCI-H23 = system: NCI-H23
ACHN = system: ACHN
DLD-1 = system: DLD-1
LOX IMVI = system: LOX IMVI
NCI-H226 = system: NCI-H226
KM-20L2 = system: KM-20L2
SF-268 = system: SF-268
HCC 2998 = system: HCC 2998
HT-29 = system: HT-29
SNB-19 = system: SNB-19
NCI-H522 = system: NCI-H522
SW-620 = system: SW-620
HOP-92 = system: HOP-92
OVCAR-8 = system: OVCAR-8
M14 = system: M14
M19-MEL = system: M19-MEL
COLO 205 = system: COLO 205
Malme-3M = system: Malme-3M
CAKI-1 = system: CAKI-1
CCRF-CEM = system: CCRF-CEM
MCF7 = system: MCF7
SF-295 = system: SF-295
NCI/ADR-RES = system: NCI/ADR-RES
HL-60 = system: HL-60
RXF 393 = system: RXF 393
SR = system: SR

For `CCOc1ccc(NC(=O)C(=O)C(C(=O)c2ccc3ccccc3c2)C2OC(=O)c3ccccc32)cc1` (configuration not stated), the GI50 (SNB-75) was 15.7 µM (inactive), the GI50 (A498) was 15.1 µM (inactive) and the GI50 (OVCAR-3) was 16.2 µM (inactive). The GI50 (786-0) was 6.47 µM (inactive), the GI50 (SK-MEL-28) was 13.6 µM (inactive) and the GI50 (DMS-114) was 14.8 µM (inactive). The GI50 (OVCAR-4) was 12.5 µM (inactive), the GI50 (OVCAR-5) was 30.9 µM (inactive) and the GI50 (SK-OV-3) was 50.9 µM (inactive). For the same molecule, the GI50 (HCT-15) was 13.7 µM, the GI50 (TK-10) was 50.7 µM (inactive) and the GI50 (DMS-273) was 7.35 µM (inactive). The GI50 (SF-539) was 7.31 µM (inactive), the GI50 (EKVX) was > 100 µM (inactive) and the GI50 (A549) was 20.2 µM (inactive). For the same molecule, the GI50 (U-251) was 5.04 µM (inactive), the GI50 (KM12) was 32.7 µM (inactive) and the GI50 (SK-MEL-5) was 14.2 µM (inactive). The GI50 (SN12C) was 17.2 µM (inactive), the GI50 (RPMI-8226) was 4.8 µM (inactive) and the GI50 (K562) was 20.5 µM (inactive). For the same molecule, the GI50 (LXFL 529) was 6.9 µM (inactive), the GI50 (UO-31) was 15.7 µM (inactive) and the GI50 (SK-MEL-2) was 15.5 µM (inactive). The GI50 (HOP-18) was 17.7 µM (inactive), the GI50 (NCI-H460) was 5.09 µM (inactive) and the GI50 (UACC-257) was 17 µM (inactive). The GI50 (UACC-62) was 13.7 µM (inactive), the GI50 (SNB-78) was 4.91 µM (inactive) and the GI50 (HOP-62) was 17.5 µM (inactive). For the same molecule, the GI50 (XF498) was 13.8 µM (inactive), the GI50 (HCT-116) was 15.7 µM (inactive) and the GI50 (MOLT-4) was 4.57 µM (inactive). The GI50 (IGROV-1) was 17.6 µM (inactive), the GI50 (NCI-H23) was 11.7 µM (inactive) and the GI50 (ACHN) was 33.4 µM (inactive). The GI50 (DLD-1) was 7.87 µM (inactive), the GI50 (LOX IMVI) was 15.7 µM (inactive) and the GI50 (NCI-H226) was 3.31 µM (inactive). For the same molecule, the GI50 (KM-20L2) was 37.6 µM (inactive), the GI50 (SF-268) was 13.3 µM (inactive) and the GI50 (HCC 2998) was 11.2 µM (inactive). The GI50 (HT-29) was 34.4 µM (inactive), the GI50 (SNB-19) was 9.62 µM (inactive) and the GI50 (NCI-H522) was 11.8 µM (inactive). The GI50 (SW-620) was 15.6 µM (inactive), the GI50 (HOP-92) was 19.5 µM (inactive) and the GI50 (OVCAR-8) was 17.6 µM (inactive). For the same molecule, the GI50 (M14) was 18.5 µM (inactive), the GI50 (M19-MEL) was 13.4 µM (inactive) and the GI50 (COLO 205) was 19.1 µM (inactive). The GI50 (Malme-3M) was 10.9 µM (inactive), the GI50 (CAKI-1) was 23.8 µM (inactive) and the GI50 (CCRF-CEM) was 7.08 µM (inactive).
For `C=C(C)C(=O)OC1CCC2(C)C(CCC3C2CCC2(C)C(c4ccc(=O)oc4)CC4OC432)C1` (configuration not stated), the GI50 (SNB-75) was 7.38 µM (inactive), the GI50 (A498) was 5.02 µM (inactive) and the GI50 (OVCAR-3) was 4.57 µM (inactive). For the same molecule, the GI50 (SK-MEL-28) was 12.5 µM (inactive), the GI50 (DMS-114) was 2.43 µM (inactive) and the GI50 (OVCAR-4) was 5.75 µM (inactive). The GI50 (OVCAR-5) was 30.4 µM (inactive), the GI50 (SK-OV-3) was 20.5 µM (inactive) and the GI50 (HCT-15) was 6.78 µM. For the same molecule, the GI50 (DMS-273) was 3.31 µM (inactive), the GI50 (SF-539) was 5.35 µM (inactive) and the GI50 (MCF7) was 2.48 µM (inactive). The GI50 (SF-295) was 5.07 µM (inactive), the GI50 (EKVX) was 2.42 µM (inactive) and the GI50 (NCI/ADR-RES) was 6.46 µM (inactive). For the same molecule, the GI50 (A549) was 2.31 µM (inactive), the GI50 (U-251) was 6.73 µM (inactive) and the GI50 (KM12) was 6.4 µM (inactive). For the same molecule, the GI50 (SK-MEL-5) was 3.8 µM (inactive), the GI50 (SN12C) was 3.61 µM (inactive) and the GI50 (RPMI-8226) was 1.6 µM (inactive). The GI50 (K562) was 2.69 µM (inactive), the GI50 (UO-31) was 4.75 µM (inactive) and the GI50 (HL-60) was 0.57 µM (active). The GI50 (SK-MEL-2) was 4.28 µM (inactive), the GI50 (HOP-18) was 13.3 µM (inactive) and the GI50 (NCI-H460) was 1.25 µM (inactive). The GI50 (UACC-257) was 2.96 µM (inactive), the GI50 (UACC-62) was 3.33 µM (inactive) and the GI50 (SNB-78) was 5.47 µM (inactive). The GI50 (HOP-62) was 3.31 µM (inactive), the GI50 (XF498) was 5.15 µM (inactive) and the GI50 (HCT-116) was 2.75 µM (inactive). For the same molecule, the GI50 (MOLT-4) was 2.41 µM (inactive), the GI50 (IGROV-1) was 6.75 µM (inactive) and the GI50 (NCI-H23) was 3.49 µM (inactive). The GI50 (DLD-1) was 2.18 µM (inactive), the GI50 (LOX IMVI) was 3.82 µM (inactive) and the GI50 (NCI-H226) was 9.42 µM (inactive). The GI50 (KM-20L2) was 6.92 µM (inactive), the GI50 (SF-268) was 5.31 µM (inactive) and the GI50 (HCC 2998) was 5.19 µM (inactive). The GI50 (HT-29) was 7.94 µM (inactive), the GI50 (SNB-19) was 18.5 µM (inactive) and the GI50 (NCI-H522) was 2.95 µM (inactive). The GI50 (SW-620) was 6.34 µM (inactive), the GI50 (RXF 393) was 2.78 µM (inactive) and the GI50 (HOP-92) was 0.804 µM (active). The GI50 (OVCAR-8) was 5.51 µM (inactive), the GI50 (M19-MEL) was 3.91 µM (inactive) and the GI50 (COLO 205) was 8.18 µM (inactive). For the same molecule, the GI50 (Malme-3M) was 8.13 µM (inactive), the GI50 (CAKI-1) was 4.07 µM (inactive) and the GI50 (CCRF-CEM) was 3.26 µM (inactive).
With `Cc1ccc(NC(=O)CSc2nnc(Cc3ccccc3)o2)c(C)c1` the GI50 (SNB-75) was > 100 µM (inactive), the GI50 (786-0) was > 100 µM (inactive) and the GI50 (SK-MEL-28) was > 100 µM (inactive). For the same molecule, the GI50 (DMS-114) was > 100 µM (inactive), the GI50 (OVCAR-4) was > 100 µM (inactive) and the GI50 (SK-OV-3) was > 100 µM (inactive). The GI50 (HCT-15) was greater than 100 µM, the GI50 (TK-10) was > 100 µM (inactive) and the GI50 (DMS-273) was > 100 µM (inactive). For the same molecule, the GI50 (SF-295) was > 100 µM (inactive), the GI50 (EKVX) was > 100 µM (inactive) and the GI50 (A549) was > 100 µM (inactive). The GI50 (U-251) was > 100 µM (inactive), the GI50 (KM12) was > 100 µM (inactive) and the GI50 (SK-MEL-5) was > 100 µM (inactive). For the same molecule, the GI50 (SN12C) was > 100 µM (inactive), the GI50 (RPMI-8226) was > 100 µM (inactive) and the GI50 (K562) was > 100 µM (inactive). For the same molecule, the GI50 (LXFL 529) was > 100 µM (inactive), the GI50 (UO-31) was > 100 µM (inactive) and the GI50 (HL-60) was > 100 µM (inactive). For the same molecule, the GI50 (SK-MEL-2) was > 100 µM (inactive), the GI50 (HOP-18) was > 100 µM (inactive) and the GI50 (NCI-H460) was > 100 µM (inactive). The GI50 (SR) was > 100 µM (inactive), the GI50 (UACC-257) was > 100 µM (inactive) and the GI50 (UACC-62) was > 100 µM (inactive). For the same molecule, the GI50 (SNB-78) was > 100 µM (inactive), the GI50 (HOP-62) was > 100 µM (inactive) and the GI50 (XF498) was > 100 µM (inactive). For the same molecule, the GI50 (HCT-116) was > 100 µM (inactive), the GI50 (MOLT-4) was > 100 µM (inactive) and the GI50 (NCI-H23) was > 100 µM (inactive). The GI50 (ACHN) was > 100 µM (inactive), the GI50 (LOX IMVI) was > 100 µM (inactive) and the GI50 (NCI-H226) was > 100 µM (inactive). For the same molecule, the GI50 (KM-20L2) was > 100 µM (inactive), the GI50 (SF-268) was > 100 µM (inactive) and the GI50 (HT-29) was > 100 µM (inactive). For the same molecule, the GI50 (SNB-19) was > 100 µM (inactive), the GI50 (NCI-H522) was > 100 µM (inactive) and the GI50 (SW-620) was > 100 µM (inactive). For the same molecule, the GI50 (RXF 393) was > 100 µM (inactive), the GI50 (OVCAR-8) was > 100 µM (inactive) and the GI50 (M14) was > 100 µM (inactive). The GI50 (M19-MEL) was > 100 µM (inactive), the GI50 (COLO 205) was > 100 µM (inactive) and the GI50 (Malme-3M) was > 100 µM (inactive). For the same molecule, the GI50 (CCRF-CEM) was > 100 µM (inactive).

Source: ChEMBL document CHEMBL1201862, “PubChem BioAssay data set” (2004)
